Results reported in the supplement of paper PMC10331698.
± gives the standard deviation of the averaged measurements.

Columns and labels:
Experiment in all cases: level (log10 ratio to DMSO vehicle control); higher = higher biomarker level / cell amount than vehicle control
[1] = compound: C=C(C)C(=O)OCCC(F)(F)C(F)(F)C(F)(F)C(F)(F)C(F)(F)C(F)(F)C(F)(F)C(F)(F)F [8:2 Fluorotelomer methacrylate] (in DMSO)
Procedure: (§1)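 BioMAP Diversity Plus panel of 12 human primary cell co-culture systems (3C, 4H, LPS, SAg, BT, BF4T, BE3C, CASM3C, HDF3CGF, KF3CT, MyoF, Mphg). Compounds were added 1 h before stimulation and left for 24 h (MyoF 48 h; BT 72 h for soluble read-outs or 6 d for IgG). Biomarkers were read by ELISA, cytotoxicity by SRB, PBMC viability and proliferation by Alamar Blue. Each well value was divided by the mean of 8 DMSO control wells on the same plate and log10 transformed; duplicate blinded samples were tested at 4 concentrations.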

[2] = compound: CN(C(=O)C(F)(F)C(F)(F)C(F)(F)F)[Si](C)(C)C [N-Methyl-N-trimethylsilylheptafluorobutyramide] (in DMSO)
Procedure: as §1

[3] = compound: C[C@@H]1C[C@H]2[C@@H]3CCC4=CC(=O)C=C[C@]4(C)[C@@]3(F)[C@@H](O)C[C@]2(C)[C@@]1(O)C(=O)COP(=O)(O)O [Dexamethasone sodium phosphate] (in DMSO)
Procedure: as §1

[4] = compound: NS(=O)(=O)C(F)(F)C(F)(F)C(F)(F)C(F)(F)C(F)(F)C(F)(F)C(F)(F)C(F)(F)F [Perfluorooctanesulfonamide] (in DMSO)
Procedure: as §1

[5] = compound: O=C(O)C(F)(OC(F)(F)C(F)(OC(F)(F)C(F)(OC(F)(F)C(F)(F)C(F)(F)F)C(F)(F)F)C(F)(F)F)C(F)(F)F [Perfluoro-(2,5,8-trimethyl-3,6,9-trioxadodecanoic)acid] (in DMSO)
Procedure: as §1

[6] = compound: O=C(O)CCC(F)(C(F)(F)F)C(F)(F)F [4,4-bis(Trifluoromethyl)-4-fluoropropanoic acid] (in DMSO)
Procedure: as §1

[7] = compound: OCC(F)(F)C(F)(F)C(F)(F)C(F)F [1H,1H,5H-Perfluoropentanol] (in DMSO)
Procedure: as §1

Test System	level (log10) ([1]; 6700 nM)	level (log10) ([1]; 20000 nM)	level (log10) ([2]; 6700 nM)	level (log10) ([2]; 20000 nM)	level (log10) ([2]; 60000 nM)	level (log10) ([3]; 1500 nM)	level (log10) ([3]; 4400 nM)	level (log10) ([3]; 13000 nM)	level (log10) ([3]; 40000 nM)	level (log10) ([4]; 6700 nM)	level (log10) ([4]; 20000 nM)	level (log10) ([5]; 1100 nM)	level (log10) ([5]; 3300 nM)	level (log10) ([5]; 10000 nM)	level (log10) ([6]; 6700 nM)	level (log10) ([6]; 20000 nM)	level (log10) ([6]; 60000 nM)	level (log10) ([7]; 6700 nM)	level (log10) ([7]; 20000 nM)	level (log10) ([7]; 60000 nM)
BE3C:CXCL9/MIG	-0.01 ± 0.014	-0.0095 ± 0.022	0.0065 ± 0.018	0.0005 ± 0.00071	0.004 ± 0.027	-0.0065 ± 0.019	0.003 ± 0.02	-0.01 ± 0.014	-0.0085 ± 0.00071	-0.0015 ± 0.0021	0.013 ± 0.013	-0.001 ± 0.0071	0.0025 ± 0.0078	0.0045 ± 0.015	-0.01 ± 0.014	-0.0085 ± 0.022	-0.0135 ± 0.016	-0.0075 ± 0.012	0.0135 ± 0.0092	0.013 ± 0.018
LPS:IL-1alpha	0.074 ± 0.0057	0.0625 ± 0.077	-0.004 ± 0.041	0.017 ± 0.0071	0.02 ± 0.0028	-0.0215 ± 0.0035	-0.0475 ± 0.1	-0.0575 ± 0.035	-0.0835 ± 0.08	-0.0195 ± 0.025	-0.013 ± 0.0071	0.0135 ± 0.00071	-0.0305 ± 0.023	-0.005 ± 0.059	0.009 ± 0.072	0.0215 ± 0.022	0.0215 ± 0.032	-0.048 ± 0.021	-0.0295 ± 0.0064	-0.003 ± 0.0099
BT:PBMC Cytotoxicity	-0.0005 ± 0.0021	0.016 ± 0.058	-0.007 ± 0.0014	0.0035 ± 0.022	0.0055 ± 0.044	-0.0915 ± 0.00071	-0.102 ± 0.028	-0.107 ± 0.0064	-0.0975 ± 0.039	0.0175 ± 0.0064	0.03 ± 0.0099	-0.0095 ± 0.0092	-0.022 ± 0.011	-0.04 ± 0.047	0.0145 ± 0.019	-0.0095 ± 0.023	-0.002 ± 0.057	-0.0275 ± 0.013	-0.038 ± 0.045	-0.019 ± 0.042
4H:CCL2/MCP-1	-0.0075 ± 0.053	0.027 ± 0.034	-0.0405 ± 0.028	-0.0525 ± 0.039	0.0195 ± 0.11	-0.0075 ± 0.018	0.005 ± 0.033	0.017 ± 0.041	0.043 ± 0.025	-0.093 ± 0.023	-0.124 ± 0.0021	0.0005 ± 0.012	-0.017 ± 0.0099	0.0205 ± 0.021	0.016 ± 0.024	0.0275 ± 0.03	0.023 ± 0.047	-0.0265 ± 0.046	-0.0115 ± 0.033	0.039 ± 0.055
SAg:SRB	-0.009 ± 0.0014	-0.011 ± 0.018	0.0055 ± 0.013	0.013 ± 0.0042	0.008 ± 0.0099	0.0105 ± 0.0092	0.0005 ± 0.005	0.005 ± 0.016	0.003 ± 0.025	0.0065 ± 0.005	-0.0515 ± 0.0064	-0.007 ± 0.0071	-0.013 ± 0.0042	-0.0015 ± 0.0021	-0.0035 ± 0.0078	0.006 ± 0.0042	0.003 ± 0.016	-0.0075 ± 0.0021	-0.009 ± 0.0014	0.001 ± 0.0085
LPS:sPGE2	-0.038 ± 0.013	-0.058 ± 0.048	0.0035 ± 0.011	0.0095 ± 0.044	-0.023 ± 0.057	-0.028 ± 0.028	-0.0525 ± 0.015	-0.121 ± 0.044	-0.155 ± 0.016	0.07 ± 0.011	0.0945 ± 0.012	0.0385 ± 0.032	0.011 ± 0.031	-0.012 ± 0.047	-0.0445 ± 0.019	-0.018 ± 0.033	0.011 ± 0.0085	-0.071 ± 0.011	-0.027 ± 0.018	-0.0175 ± 0.036
BF4T:MMP-3	-0.0035 ± 0.019	0.0255 ± 0.044	-0.016 ± 0.031	-0.008 ± 0.011	0 ± 0.017	0.0565 ± 0.083	0.006 ± 0.061	-0.03 ± 0.05	0.0185 ± 0.033	0.004 ± 0.024	0.0845 ± 0.028	-0.01 ± 0.0014	-0.01 ± 0.014	0.015 ± 0.017	0.0295 ± 0.022	0.0285 ± 0.00071	0.031 ± 0.052	-0.0125 ± 0.0064	-0.007 ± 0.0099	0.002 ± 0.021
LPS:M-CSF	-0.019 ± 0.021	-0.0635 ± 0.00071	-0.0075 ± 0.0092	-0.0135 ± 0.012	-0.0045 ± 0.079	-0.0225 ± 0.016	-0.0445 ± 0.039	-0.0265 ± 0.0078	-0.0515 ± 0.012	-0.0035 ± 0.032	0.05 ± 0.04	-0.005 ± 0.02	0.0145 ± 0.035	0.022 ± 0.023	-0.0345 ± 0.0021	-0.0145 ± 0.029	-0.0245 ± 0.00071	-0.01 ± 0.0014	-0.0015 ± 0.029	0.0125 ± 0.049
3C:CD87/uPAR	0.046 ± 0.018	0.049 ± 0.013	-0.0105 ± 0.0021	-0.0155 ± 0.0078	-0.007 ± 0.0042	0.0545 ± 0.013	0.048 ± 0.02	0.0455 ± 0.00071	0.016 ± 0.016	0.006 ± 0.0099	-0.0425 ± 0.016	-0.0075 ± 0.016	-0.0005 ± 0.011	-0.0105 ± 0.019	0.051 ± 0.0057	0.0265 ± 0.0078	0.0295 ± 0.044	-0.0135 ± 0.019	0.0015 ± 0.011	-0.0095 ± 0.013
BF4T:uPA	-0.013 ± 0.013	0.009 ± 0.0014	-0.013 ± 0.031	-0.012 ± 0.013	-0.008 ± 0.0028	0.006 ± 0.025	-0.013 ± 0.045	-0.002 ± 0.013	-0.002 ± 0.0028	0.014 ± 0.016	0.005 ± 0.034	0.008 ± 0.0028	0.0015 ± 0.0035	0.004 ± 0.0071	-0.0015 ± 0.011	-0.0065 ± 0.016	-0.001 ± 0.0042	-0.0215 ± 0.032	0.023 ± 0.016	0.013 ± 0.02
BF4T:PAI-I	-0.0075 ± 0.0092	0.0055 ± 0.012	0.0055 ± 0.04	-0.007 ± 0.017	0.0025 ± 0.0064	-0.0005 ± 0.022	0.01 ± 0.013	0.001 ± 0.018	0.0085 ± 0.0021	-0.004 ± 0.011	-0.038 ± 0.0099	0.011 ± 0.0071	-0.0025 ± 0.0092	0.006 ± 0.018	-0.002 ± 0.014	-0.01 ± 0.013	0.008 ± 0.011	0.01 ± 0.0085	0.0095 ± 0.018	0.0215 ± 0.026
BE3C:CD87/uPAR	-0.0135 ± 0.023	0.0015 ± 0.036	0.0055 ± 0.016	0.0275 ± 0.019	0.0275 ± 0.026	-0.08 ± 0.048	-0.102 ± 0.0057	-0.108 ± 0.033	-0.096 ± 0.0042	-0.01 ± 0.0071	-0.0025 ± 0.019	-0.0035 ± 0.0021	-0.011 ± 0.0057	0.025 ± 0.024	0.0005 ± 0.028	-0.004 ± 0.044	-0.01 ± 0.0028	-0.012 ± 0.0085	-0.01 ± 0.0071	0 ± 0.027
SAg:CD69	-0.013 ± 0.016	-0.022 ± 0.013	-0.024 ± 0.0014	0.0015 ± 0.0078	-0.0025 ± 0.015	-0.025 ± 0.02	-0.054 ± 0.02	-0.0885 ± 0.03	-0.0865 ± 0.011	-0.0205 ± 0.06	-0.119 ± 0.064	-0.0135 ± 0.005	-0.015 ± 0.0042	-0.0095 ± 0.023	-0.0395 ± 0.0021	-0.0205 ± 0.00071	-0.0515 ± 0.046	-0.015 ± 0.018	0.0185 ± 0.0092	0.0045 ± 0.023
